In test [1] the test system is Target C. The test is described as follows: HiBiT protein abundance assay, Target C (Promega Nano-Glo HiBiT Lytic Detection System, knock-in K562 cell line). It counts as cell-based, human. To be noted: Homo sapiens, K562, 24 h, read-out: Effect on protein abundance, Target C (IC50 category). In outline: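 Knock-in K562 cells carrying HiBiT-tagged Target C, 10,000 per well, treated 24 h at 37 °C with 10-point threefold dilutions (top 10 μM final, ≤0.25% DMSO). Lytic HiBiT luminescence read; response normalised to unmodified K562 and DMSO controls, four-parameter fit interpolated at 50% for IC50.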
A general note: HiBiT is a short tag that completes a luciferase, so light tracks the accessible tagged protein.

For another test, the system named is HTT. The test is described as follows: HiBiT protein abundance assay, HTT HiBiT K562 cell line. The class given is cell-based, human. As to conditions: 24 hours, top dose 10 μM. An outline of the steps: (§1)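 K562 knock-in lines with endogenous HiBiT-tagged target, 10,000 cells/well in IMDM + FBS, treated 24 h at 37° C with 10-point 3-fold dilutions (top 10 μM final; DMSO ≤0.25%). Lytic Nano-Glo HiBiT luminescence normalized to untagged K562 baseline and DMSO controls; IC50 = concentration giving 50% abundance via four-parameter fit.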

The next test deals with SMN2 mRNA. Put plainly: RT-qPCR splicing assay, SMN2 canonical junction (CJ) mRNA. It counts as cell-based, human. To be noted: Homo sapiens. An outline of the steps:
(§2)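 K562/A673 cells, 11-pt 3-fold compound titration from 10 uM final, DMSO ≤0.25%, 24 h 37 °C 5% CO2; lyse (DNase I or Igepal/Tris buffer pH 7.4); RT-qPCR for CJ isoform vs housekeeping gene (GAPDH/GUSB/PPIA).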
On the technique in general: Real-time PCR tracks product formation cycle by cycle.

In the next test the test system is MYB. Put plainly: HiBiT protein abundance assay, MYB HiBiT K562 cell line. The class given is cell-based, human. As to conditions: 24 hours, top dose 10 μM. In outline:
as §1

Another test deals with MYB mRNA. The test is described as follows: RT-qPCR splicing assay, MYB canonical junction (CJ) and alternative junction (AJ) mRNA. It counts as cell-based, human. As to conditions: Homo sapiens; for IC50: read-out: MYB CJ IC50 (nM). An outline of the steps:
(§3)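 24 h treatment, 37 °C/5% CO2; A673 or K562; 11-pt 3-fold series, top 10 uM final; DMSO ≤0.25%. Cell lysis with DNase I, then 1-step RT-qPCR. Housekeeping normalization: PPIA (A673), GAPDH or GUSB (K562).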

Test [2] has as its system K562 (human chronic myelogenous leukemia) cells. Put plainly: Cell Titer Glo 2.0 cell viability assay. The class given is cell-based. As to conditions: Homo sapiens, K562, 72 h, read-out: K562 GI50. In general terms: ATP-based viability assays read luminescence as a measure of living cells.
The test system of test [3] is Target C. The test is described as follows: RT-qPCR splicing assay panel, Target C canonical junction (CJ) mRNA. It counts as cell-based, human. To be noted: Homo sapiens. In outline:
as §2

For the next test, the system named is HTT mRNA. The test is described as follows: RT-qPCR splicing assay, HTT canonical junction (CJ) and alternative junction (AJ) mRNA. The class given is cell-based, human. To be noted: Homo sapiens; for IC50: read-out: HTT CJ IC50 (nM). An outline of the steps: as §3
Test [4] relates to Target C. Put plainly: HiBiT protein abundance assay, Target C HiBiT K562 cell line. The class given is cell-based. As to conditions: Homo sapiens; HiBiT lytic detection, modified K562 cells, 24 hours, top dose 10 μM; read-out: Effect on protein abundance, Target C (IC50). Here is the method: • Promega Nano-Glo HiBiT Lytic Detection System (cat #N3030) • Corning 384-well TC-treated microplates (cat #3570) • Synthego Engineered Cells Knock-In Clones
Cells were maintained in IMDM with 10% FBS. Before the assay, cells were diluted with […] growth media (IMDM+[…] media) and were seeded in a 384-well plate at a density of 10,000 cells/well (for each cell line listed in Table 5). Each compound was prepared as a 10-point 3-fold serial dilution in DMSO with the top dose at a final concentration of 10 μM in the well. Unmodified K562 cells were added at the previously specified density with DMSO to serve as an assay baseline and positive control (PC) and DMSO only with the respective modified cell lines was added to the negative control (NC) columns. Final DMSO concentration was kept at or below 0.25%. Treated cell plates were placed in an incubator at 37° C. with […] for 24 hours. After 24 hours, 25 μL of Complete HiBit Lytic reagent was added to each well at room temperature (e.g. one plate requiring 10 mL Lytic Buffer, 100 μL LgBiT Protein, 200 μL Lytic Substrate), shaken for 5 minutes at 600 RPM, then left to sit for 10 minutes for signal to stabilize before reading on a Spark Cyto plate reader (Tecan) with a 500 ms measurement time.
To determine compound effects on protein abundance of each target in Table 5, the percent response for each respective cell line was calculated at each compound concentration as follows:
For the normalized response at each concentration, a four-parameter logistical regression was fit to the data and the response was interpolated at the […] to determine a concentration for protein abundance at […] the untreated control.

Where [5] appears, read: read-out: Effect on protein abundance, HTT (IC50 category), HiBiT K562 cell line.
Where [6] appears, read: read-out: Effect on protein abundance, MYB (IC50 category), HiBiT K562 cell line.
[7] abbreviates: HiBiT lytic detection, modified K562 cells, read-out: Effect on protein abundance, HTT (IC50).
[8] abbreviates: HiBiT lytic detection, modified K562 cells, read-out: Effect on protein abundance, MYB (IC50).
Where [9] appears, read: K562 cells, 72 hours, Cell Titer Glo 2.0.
Where [10] appears, read: canonical junction qPCR panel, Table 5, read-out: SMN2 (decrease in CJ mRNA levels, IC50).
Setting [11] is: canonical junction qPCR panel, Table 5, read-out: MYB (decrease in CJ mRNA levels, IC50).
Setting [12] is: decrease in MYB canonical junction (CJ) mRNA, RT-qPCR, read-out: MYB CJ IC50.
Setting [13] is: increase in MYB alternative junction (AJ) mRNA, RT-qPCR, read-out: MYB AJ AC50.
The mark [14] stands for this setting: decrease in HTT canonical junction (CJ) mRNA, RT-qPCR, read-out: HTT CJ IC50.
The mark [15] stands for this setting: increase in HTT alternative junction (AJ) mRNA, RT-qPCR, read-out: HTT AJ AC50.
Setting [16] is: canonical junction qPCR panel, Table 5, read-out: HTT (decrease in CJ mRNA levels, IC50).

Our source for the IC50, AC50 and GI50 values is patent US20250332173A1, “COMPOUNDS AND METHODS FOR MODULATING NUCLEIC ACID SPLICING” (REMIX THERAPEUTICS INC., priority 2021, published 2025).

Each structure is given as a SMILES string. pIC50: −log10 of the molar value. Like-named read-outs stand apart in the source and are kept apart here. Bounds are passed on as bounds.

The pIC50 is the negative decadic logarithm of the IC50, by convention in mol/L. As a reminder, the AC50 is the concentration at which the activity in the assay is half-maximal. Broadly, the IC50 is the concentration at which inhibition is half-maximal. In general, GI50 refers to the concentration at which growth is held to half of that of the control. With `Cc1cn2nc(-c3ccc4c(=O)n(C5CCNCC5)ccc4c3)cc(CC(=O)N(C)C)c2n1` [Compound 532, N,N-dimethyl-2-[2-methyl-6-[1-oxo-2-(4-piperidyl)-6-isoquinolyl]imidazo[1,2-b]pyridazin-8-yl]acetamide], the pIC50 in the test on Target C [1] was 6.00 to 7.00; with HTT (setting [5]) it was 6.00 to 7.00; in the test with SMN2 mRNA (read-out: SMN2 IC50 (decrease in CJ mRNA levels)), above 7.00; with MYB (setting [6]), 6.00 to 7.00; in the test on MYB mRNA (read-out: MYB IC50 (decrease in CJ mRNA levels)), 6.00 to 7.00; in the test on Target C [3] (read-out: Target C IC50 (decrease in CJ mRNA levels)), 5.00 to 6.00. In addition, in the test with HTT mRNA (read-out: HTT IC50 (decrease in CJ mRNA levels)), the pIC50 is 6.00 to 7.00. For the same molecule, the AC50 in the test with MYB mRNA (read-out: MYB AJ AC50 (nM)) and in the test with HTT mRNA (read-out: HTT AJ AC50 (nM)) was 100 to 1000 nM in each case. For the same molecule, the IC50 in the test on MYB mRNA and in the test on HTT mRNA was 100 to 1000 nM in each case. Also, the GI50 in test [2] lay in the range of 0.1 to 1 µM.
`Cn1cc2cc(-c3cc4ncn(C5CCNCC5)c(=O)c4cn3)c(O)c(F)c2n1` [Compound 1276]: the values for the pIC50 with HTT (setting [7]), with MYB (setting [8]) and with Target C [4] were above 7.00, 6.00 to 7.00 and above 7.00, respectively. Also, in test [2] (setting [9]), the GI50 is 0.1 to 1 µM.
Turning to `Cc1cn2nc(-c3cnc4c(=O)n(C5CCNCC5)ncc4c3)cc(C)c2n1` [Compound 1411], the pIC50 with HTT (setting [7]), in the test on MYB (setting [8]) and in the test on Target C [4] was 5.00 to 6.00 each time. Also, the GI50 in [2] (setting [9]) is 1 to 10 µM.
As to `Cc1cn2nc(-c3ccc4c(=O)n(C5CCN(C6CCC6)C6(CC6)C5)ncc4n3)cc(C)c2n1` (centres unmarked) [Compound 1540, 6-(4-cyclobutyl-4-azaspiro[2.5]octan-7-yl)-2-(2,8-dimethylimidazo[1,2-b]pyridazin-6-yl)pyrido[2,3-d]pyridazin-5-one], the pIC50 in the test on Target C [1] is 6.00 to 7.00; in the test on HTT (setting [5]), 6.00 to 7.00; with SMN2 mRNA (read-out: SMN2 (decrease in CJ mRNA levels, IC50)), above 7.00; in the test on MYB (setting [6]), 6.00 to 7.00; with MYB mRNA (read-out: MYB (decrease in CJ mRNA levels, IC50)), 6.00 to 7.00; in the test with Target C [3] (read-out: Target C (decrease in CJ mRNA levels, IC50)) it was 6.00 to 7.00. Further, in the test with HTT mRNA (read-out: HTT (decrease in CJ mRNA levels, IC50)), the pIC50 is 6.00 to 7.00. Moreover, the AC50 in the test on MYB mRNA (read-out: MYB AJ AC50 (nM)) and in the test on HTT mRNA (read-out: HTT AJ AC50 (nM)) was 100 to 1000 nM throughout. Moreover, the concentration for half-maximal inhibition (IC50) in the test with MYB mRNA and with HTT mRNA was 100 to 1000 nM in each case. In [2], the GI50 fell in the range of 0.1 to 1 µM.
Consider `Cn1cc2cc(-n3cnc4ccc(C5=CCNCC5)cc4c3=O)ccc2n1` [Compound 2151], for which the pIC50 with HTT (setting [7]) is below 5.00; in the test on SMN2 mRNA (setting [10]) it was below 5.00; with MYB (setting [8]) it was below 5.00; with MYB mRNA (setting [11]) it was 6.00 to 7.00; with MYB mRNA (setting [12]), below 5.00; in the test on Target C [4], below 5.00. For the same molecule, the pIC50 in the test on HTT mRNA (setting [14]) and in the test on HTT mRNA (setting [16]) was below 5.00 each time. Further, the AC50 is 100 to 1000 nM in the test with MYB mRNA (setting [13]) and above 10000 nM in the test with HTT mRNA (setting [15]).
For the molecule `CN1CCN(c2ccc3ncn(-c4ccc5nn(C)cc5c4)c(=O)c3c2)CC1` [Compound 2154], the pIC50 in the test on HTT (setting [7]), in the test on SMN2 mRNA (setting [10]), in the test on MYB (setting [8]), with MYB mRNA (setting [11]), in the test with MYB mRNA (setting [12]) and with Target C [4] was below 5.00 throughout. In addition, the pIC50 in the test with HTT mRNA (setting [14]) and in the test with HTT mRNA (setting [16]) was below 5.00 each time. In addition, the AC50 with MYB mRNA (setting [13]) and in the test on HTT mRNA (setting [15]) was above 10000 nM throughout.
On to `Cn1cc2cc(-n3cnc4ccc(N5CCNCC5)cc4c3=O)ccc2n1` [Compound 2155], for which the pIC50 in the test with HTT (setting [7]), in the test on SMN2 mRNA (setting [10]), in the test with MYB (setting [8]), in the test with MYB mRNA (setting [11]), in the test on MYB mRNA (setting [12]) and in the test with Target C [4] was below 5.00 each time. Also, the pIC50 in the test on HTT mRNA (setting [14]) and in the test on HTT mRNA (setting [16]) was below 5.00 each time. Also, the AC50 with MYB mRNA (setting [13]) and in the test with HTT mRNA (setting [15]) was above 10000 nM in each case.
Take `Cc1cc(-c2nc3cc(N4CCN(C)CC4)ccc3c(=O)[nH]2)cc2cn(C)nc12` [Compound 2214]: the pIC50 with HTT (setting [7]) was below 5.00; with SMN2 mRNA (setting [10]), below 5.00; with MYB (setting [8]), below 5.00; with Target C [4] it was below 5.00; in the test on Target C [3] (canonical junction qPCR panel, Table 5, read-out: Target C (decrease in CJ mRNA levels, IC50)) it was below 5.00; with HTT mRNA (setting [14]) it was below 5.00. The pIC50 in the test on HTT mRNA (setting [16]) was below 5.00. Further, the GI50 in [2] (setting [9]) lay within 1 to 10 µM. The AC50 with HTT mRNA (setting [15]) is above 10000 nM.
